Among the data in patent US20240279214A1, “ALPHA4 BETA7 INEGRIN ANTAGONISTS AND USES THEREOF” (XinThera, Inc., priority 2022, published 2024) are EC50 values, retold here.

SMILES strings stand for the structures.

This experiment concerns the target T1, a4b7 integrin interaction with MadCAM-1 (Homo sapiens, UniProt P13612+P26010).
T1 construct: capture of a4b7 integrin expressing cells, RPMI8866; endogenous in cells; host or cells: RPMI8866
T1 sequence (P13612 34-1032): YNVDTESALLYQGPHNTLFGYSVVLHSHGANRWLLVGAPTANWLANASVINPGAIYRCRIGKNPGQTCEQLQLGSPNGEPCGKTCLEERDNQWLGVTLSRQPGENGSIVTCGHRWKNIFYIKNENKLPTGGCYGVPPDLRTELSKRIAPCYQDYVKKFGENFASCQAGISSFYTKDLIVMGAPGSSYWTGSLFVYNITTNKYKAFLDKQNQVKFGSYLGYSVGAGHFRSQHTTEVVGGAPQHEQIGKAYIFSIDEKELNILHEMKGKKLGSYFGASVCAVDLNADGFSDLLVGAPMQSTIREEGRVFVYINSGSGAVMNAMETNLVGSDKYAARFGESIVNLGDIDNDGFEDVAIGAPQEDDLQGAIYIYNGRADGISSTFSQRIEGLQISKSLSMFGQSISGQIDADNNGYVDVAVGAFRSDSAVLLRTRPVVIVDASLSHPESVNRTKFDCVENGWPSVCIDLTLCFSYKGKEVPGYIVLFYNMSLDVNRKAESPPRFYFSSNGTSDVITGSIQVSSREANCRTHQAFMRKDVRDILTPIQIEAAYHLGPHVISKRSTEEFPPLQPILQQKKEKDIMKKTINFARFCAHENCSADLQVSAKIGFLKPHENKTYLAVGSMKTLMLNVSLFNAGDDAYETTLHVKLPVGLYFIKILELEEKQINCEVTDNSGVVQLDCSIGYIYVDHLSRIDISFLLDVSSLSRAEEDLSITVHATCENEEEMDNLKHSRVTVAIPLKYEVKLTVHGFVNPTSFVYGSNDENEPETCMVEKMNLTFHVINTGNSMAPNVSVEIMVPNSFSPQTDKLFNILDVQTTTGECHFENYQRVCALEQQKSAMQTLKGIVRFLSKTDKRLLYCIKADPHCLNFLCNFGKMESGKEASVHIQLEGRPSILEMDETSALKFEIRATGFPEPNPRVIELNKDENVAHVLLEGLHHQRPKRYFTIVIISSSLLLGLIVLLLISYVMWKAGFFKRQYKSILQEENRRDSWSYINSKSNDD
T1 sequence (P26010 20-798): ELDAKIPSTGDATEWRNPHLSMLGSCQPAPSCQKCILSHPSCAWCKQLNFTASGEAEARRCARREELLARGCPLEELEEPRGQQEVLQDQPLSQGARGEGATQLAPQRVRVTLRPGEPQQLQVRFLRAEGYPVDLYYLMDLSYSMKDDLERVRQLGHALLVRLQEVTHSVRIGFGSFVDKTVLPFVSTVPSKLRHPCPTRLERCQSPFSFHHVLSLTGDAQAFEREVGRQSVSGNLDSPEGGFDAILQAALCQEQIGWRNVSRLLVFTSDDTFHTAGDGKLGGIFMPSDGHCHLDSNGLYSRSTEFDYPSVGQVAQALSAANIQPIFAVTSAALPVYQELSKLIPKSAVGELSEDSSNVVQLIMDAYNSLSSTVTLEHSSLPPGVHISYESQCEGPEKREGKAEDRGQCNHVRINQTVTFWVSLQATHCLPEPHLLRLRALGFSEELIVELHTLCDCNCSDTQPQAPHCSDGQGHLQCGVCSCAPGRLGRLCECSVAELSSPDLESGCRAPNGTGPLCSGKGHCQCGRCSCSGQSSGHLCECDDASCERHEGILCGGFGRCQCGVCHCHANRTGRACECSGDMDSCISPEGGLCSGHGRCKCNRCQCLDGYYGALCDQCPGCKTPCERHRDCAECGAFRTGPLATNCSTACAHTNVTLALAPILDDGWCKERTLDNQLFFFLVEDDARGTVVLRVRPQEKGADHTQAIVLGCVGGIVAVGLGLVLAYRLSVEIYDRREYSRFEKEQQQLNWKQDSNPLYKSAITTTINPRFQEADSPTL
In words: a4b7 Cell Capture Assay (RPMI8866 cells on MAdCAM-1 Fc coated plates). The experiment is classed as cell-based. The settings on record: 50% human serum, 1 mM MgCl2, 1 hour incubation, CellTiter-Glo luminescence, read-out: a4B7 cell capture assay RMPI8866-MadCAM EC50. Put shortly: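 RPMI8866 cells (1.0×10^6 cells/mL) in 1 mM MgCl2, 25 mM HEPES, 50% human serum were added to plates coated with human MAdCAM-1–IgG1 Fc (1.0 μg/mL) and exposed to compound (9-point, 0.08–1000 nM, 0.1% DMSO) for 1 h at 37 °C. Bound cells were read by CellTiter-Glo luminescence. IC50 came from 4-parameter fit of normalized % inhibition.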
Background: ATP-based viability assays read luminescence as a measure of living cells.
As usually defined, the EC50 is the concentration needed to bring the measured effect to its halfway point. As for `Cc1cc2cc(c1F)[C@H](CC(=O)O)NC(=O)[C@@H](n1cc(CCN3CC(F)C3)c(C(F)(F)F)cc1=O)c1cccc(c1)Oc1cccc(C)c1-2` (relative stereo) [Example 1, rel-2-((5S,8S)-1^4-fluoro-5-(5-(2-(3-fluoroazetidin-1-yl)ethyl)-2-oxo-4-(trifluoromethyl)pyridin-1(2H)-yl)-1^5,2^6-dimethyl-6-oxo-3-oxa-7-aza-1,4(1,3),2(1,2)-tribenzenacyclooctaphane-8-yl)acetic acid], the EC50 stood at 59 nM.

Consider `Cc1cc2cc(c1F)[C@H](CC(=O)O)NC(=O)[C@@H](n1cc(CCN3CC(F)C3)c(C(F)(F)F)cc1=O)c1cc(ccc1F)Oc1cccc(C)c1-2` (relative stereo) [Example 7, [(14R*,17S)-12,19-difluoro-14-{5-[2-(3-fluoroazetidin-1-yl)ethyl]-2-oxo-4-(trifluoromethyl)pyridin-1-yl}-3,20-dimethyl-15-oxo-8-oxa-16-azatetracyclo[16.3.1.1^{9,13}.0^{2,7}]tricosa-1(21),2(7),3,5,9(23),10,12,18(22),19-nonaen-17-yl]acetic acid], for which the EC50 amounted to 1.1 nM.

Take `Cc1cc(C2CC2)cc2c1-c1cc(c(F)c(C(F)(F)F)c1)[C@H](CC(=O)O)NC(=O)[C@@H](n1cc(CCN3CC(F)C3)c(C(F)(F)F)cc1=O)c1cccc(c1)O2` (relative stereo) [Example 10, [(14R*,17S)-5-cyclopropyl-19-fluoro-14-{5-[2-(3-fluoroazetidin-1-yl)ethyl]-2-oxo-4-(trifluoromethyl)pyridin-1-yl}-3-methyl-15-oxo-20-(trifluoromethyl)-8-oxa-16-azatetracyclo[16.3.1.1^{9,13}.0^{2,7}]tricosa-1(21),2(7),3,5,9,11,13(23),18(22),19-nonaen-17-yl]acetic acid]: the EC50 was found to be 360 nM.

As to `Cc1cccc2c1-c1cc(c(F)c(C(F)(F)F)c1)[C@H](CC(=O)O)NC(=O)[C@@H](n1cc(CCN3CC(F)C3)c(C(F)(F)F)cc1=O)c1cc(Cl)cc(c1)O2` (relative stereo) [Example 15, [(14R*,17S)-11-chloro-19-fluoro-14-{5-[2-(3-fluoroazetidin-1-yl)ethyl]-2-oxo-4-(trifluoromethyl)pyridin-1-yl}-3-methyl-15-oxo-20-(trifluoromethyl)-8-oxa-16-azatetracyclo[16.3.1.1^{9,13}.0^{2,7}]tricosa-1(22),2(7),3,5,9,11,13(23),18,20-nonaen-17-yl]acetic acid], the EC50 was 28 nM.

Consider `Cc1cc(C)c2c(c1)Oc1cccc(c1)[C@H](n1cc(CCCN(C)C)c(C(F)(F)F)cc1=O)C(=O)N[C@@H](CC(=O)O)c1cn-2nc1C(F)(F)F` (relative stereo) [Example 18, [(13S,16R*)-16-{5-[3-(dimethylamino)propyl]-2-oxo-4-(trifluoromethyl)pyridin-1-yl}-5,7-dimethyl-15-oxo-11-(trifluoromethyl)-2-oxa-9,10,14-triazatetracyclo[15.3.1.1^{9,12}.0^{3,8}]docosa-1(20),3(8),4,6,10,12(22),17(21),18-octaen-13-yl]acetic acid], for which the EC50 came out at 9.2 nM.

Take `Cc1cc2cc(c1F)[C@H](CC(=O)O)NC(=O)[C@@H](n1cc(CCN3CC(F)C3)c(C(F)(F)F)cc1=O)c1cc(Cl)cc(c1)Oc1cccc(C)c1-2` (single isomer, unassigned) [Example 3]: the EC50 worked out at 12 nM.

Regarding `Cc1cc(Cl)cc2c1-c1cc(c(F)c(C(F)(F)F)c1)[C@H](CC(=O)O)NC(=O)[C@@H](n1cc(CCN3CC(F)C3)c(C(F)(F)F)cc1=O)c1cccc(c1)O2` (single isomer, unassigned) [Example 11], the EC50 was determined as 340 nM.
